Experimental data taken from ChEMBL document CHEMBL1201862, “PubChem BioAssay data set” (2004).
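Five concentrations, 48 hours, 96-well plates. Here, GI50 denotes the concentration required for 50% inhibition of growth.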 Calls of active or inactive are those of the source. Rule as the data show it: active = GI50 up to about 1.1 µM and inactive = higher.

Legend:
Assay in all cases: DTP human tumour cell line panel, 48 h
A498 = test system: A498
A549 = test system: A549
HCT-116 = test system: HCT-116
HL-60 = test system: HL-60
IGROV-1 = test system: IGROV-1
KM12 = test system: KM12
LOX IMVI = test system: LOX IMVI
MCF7 = test system: MCF7
MDA-MB-231 = test system: MDA-MB-231
MDA-MB-435 = test system: MDA-MB-435
MOLT-4 = test system: MOLT-4
Malme-3M = test system: Malme-3M
NCI-H23 = test system: NCI-H23
NCI/ADR-RES = test system: NCI/ADR-RES
OVCAR-5 = test system: OVCAR-5
OVCAR-8 = test system: OVCAR-8
SK-MEL-28 = test system: SK-MEL-28
SK-MEL-5 = test system: SK-MEL-5
SK-OV-3 = test system: SK-OV-3
HOP-62 = test system: HOP-62

Row | Compound | GI50 (A498) | GI50 (A549) | GI50 (HCT-116) | GI50 (HL-60) | GI50 (IGROV-1) | GI50 (KM12) | GI50 (LOX IMVI) | GI50 (MCF7) | GI50 (MDA-MB-231) | GI50 (MDA-MB-435) | GI50 (MOLT-4) | GI50 (Malme-3M) | GI50 (NCI-H23) | GI50 (NCI/ADR-RES) | GI50 (OVCAR-5) | GI50 (OVCAR-8) | GI50 (SK-MEL-28) | GI50 (SK-MEL-5) | GI50 (SK-OV-3) | GI50 (HOP-62)
1 | NC1=NN(c2ccccc2)C2(O)c3ccncc3C3=NN(c4ccccc4)C(=O)C132 (stereo unspecified) | > 100 µM (inactive) | > 100 µM (inactive) | > 100 µM (inactive) | > 100 µM (inactive) | > 100 µM (inactive) | > 100 µM (inactive) | > 100 µM (inactive) | > 100 µM (inactive) | > 100 µM (inactive) | > 100 µM (inactive) | > 100 µM (inactive) | 63.1 µM (inactive) | > 100 µM (inactive) | > 100 µM (inactive) | > 100 µM (inactive) | > 100 µM (inactive) | > 100 µM (inactive) | > 100 µM (inactive) | > 100 µM (inactive) | –
2 | O=c1[nH][nH]c(=O)n1Cc1cccc(Cn2c(=O)[nH][nH]c2=O)c1 | > 100 µM (inactive) | > 100 µM (inactive) | > 100 µM (inactive) | > 100 µM (inactive) | – | > 100 µM (inactive) | > 100 µM (inactive) | > 100 µM (inactive) | > 100 µM (inactive) | > 100 µM (inactive) | > 100 µM (inactive) | > 100 µM (inactive) | > 100 µM (inactive) | > 100 µM (inactive) | > 100 µM (inactive) | > 100 µM (inactive) | > 100 µM (inactive) | > 100 µM (inactive) | > 100 µM (inactive) | –
3 | CN(C)c1c(C2CC(O)C(CO)O2)c(=O)c1=O (stereo unspecified) | > 100 µM (inactive) | > 100 µM (inactive) | > 100 µM (inactive) | > 100 µM (inactive) | > 100 µM (inactive) | > 100 µM (inactive) | > 100 µM (inactive) | > 100 µM (inactive) | > 100 µM (inactive) | > 100 µM (inactive) | > 100 µM (inactive) | – | – | > 100 µM (inactive) | > 100 µM (inactive) | > 100 µM (inactive) | > 100 µM (inactive) | – | > 100 µM (inactive) | > 100 µM (inactive)
4 | Cc1nnc(N)nc1/C=C/c1c(O)ccc2ccccc12 | 21.3 µM (inactive) | 34 µM (inactive) | 30.8 µM (inactive) | 28.2 µM (inactive) | 13.7 µM (inactive) | 34.5 µM (inactive) | 34.3 µM (inactive) | 32.8 µM (inactive) | > 100 µM (inactive) | 24.7 µM (inactive) | 22.5 µM (inactive) | – | 24.8 µM (inactive) | 30.8 µM (inactive) | 26.5 µM (inactive) | 35.2 µM (inactive) | 29.7 µM (inactive) | 25.7 µM (inactive) | 27.5 µM (inactive) | 33.9 µM (inactive)
5 | COc1cccc(-c2cc(O)c3cc(C)cnc3n2)c1 | 0.0904 µM (active) | 0.0776 µM (active) | 0.0323 µM (active) | 0.0246 µM (active) | 0.469 µM (active) | 0.0885 µM (active) | 0.0512 µM (active) | 0.543 µM (active) | 0.415 µM (active) | 0.0122 µM (active) | 0.115 µM (active) | – | 0.203 µM (active) | 0.0295 µM (active) | 0.82 µM (active) | 0.0658 µM (active) | 0.0787 µM (active) | 0.0787 µM (active) | 0.283 µM (active) | 0.0682 µM (active)
6 | CC(C)(C)NCC(O)COc1cccc2[nH]c(C#N)cc12 (stereo unspecified) [CYANOPINDOLOL] | 68.1 µM (inactive) | > 100 µM (inactive) | > 100 µM (inactive) | > 100 µM (inactive) | > 100 µM (inactive) | > 100 µM (inactive) | – | > 100 µM (inactive) | > 100 µM (inactive) | > 100 µM (inactive) | > 100 µM (inactive) | > 100 µM (inactive) | > 100 µM (inactive) | > 100 µM (inactive) | > 100 µM (inactive) | > 100 µM (inactive) | > 100 µM (inactive) | > 100 µM (inactive) | > 100 µM (inactive) | > 100 µM (inactive)
